Results as given in patent publication US20220341825A1, “CELL-COMPATIBLE TISSUE CLARIFYING COMPOSITION” (OSAKA UNIVERSITY, priority 2019, published 2022).
Marks after values point to notes of the source that are not given here.

What was measured:
[1] = tested on: collagen solution (sCMF, sonicated collagen microfiber); experiment: Transparentizing ability in collagen model system (transmittance at 600 nm); conditions: for transmittance: room temperature, 2 hours; for transparentizing ability: screening in collagen (sCMF) solution
Experimental: Since collagen is most abundant in biological tissue, a collagen solution was used as a model of the biological tissue to screen various compounds for their transparentizing ability. The outline of the screening experiment is as follows. Aqueous solutions of test compounds were added to multi-well plates containing aqueous solutions of sCMF (sonicated collagen microfiber) and allowed to stand at room temperature for a certain period of time, and subsequently, apparent transparency and transmittance at 600 nm were measured. 100 μL of 100 wt % AMP aqueous solution (refractive index: 1.43), 100 wt % CMP aqueous solution (refractive index: 1.42), 100 wt % TMP aqueous solution (refractive index: 1.41) or 25 wt % poly A aqueous solution (refractive index: 1.37) were added. The molecular weight of poly A was 100 to 500 kDa. Distilled water was added for a control. The resultant was allowed to stand at room temperature for 2 hours, and then the absorbance at 600 nm was measured with a plate reader (Synergy HTX). The obtained absorbance was substituted into an equation according to the Lambert-Beer formula to calculate the transmittance. 100 μL of 0.1 wt %, 0.5 wt %, 1 wt %, and 5 wt % sCMF aqueous solutions were placed in a 96-well plate, and 100 μL of 10 wt % (refractive index: 1.35), 25 wt % (refractive index: 1.38), 50 wt % (refractive index: 1.39), and 100 wt % (refractive index: 1.43) AMP aqueous solutions were added. After allowing the obtained samples to stand at room temperature for 2 hours, an absorbance at 600 nm was measured with a plate reader (Synergy HTX). The obtained absorbance was substituted into an equation according to the Lambert-Beer formula to calculate the transmittance.

human skin fibroblasts = experiment: Cell survival rate after transparentization treatment (trypan blue); assay type: cell-based
Experimental: The cell survival rates in the transparentization using AMP, ADP, ATP, CMP, TMP, fructose, glucose, trehalose, sucrose, antipyrine, RapiClear 1.52, and poly A were examined. 1.0×10^5 human skin fibroblasts were seeded in a 24-well plate and cultured in DMEM medium. The next day, after washing with PBS, 100 μL of 100 wt % AMP aqueous solution, 100 wt % ADP aqueous solution, 100 wt % ATP aqueous solution, 100 wt % CMP aqueous solution, 100 wt % TMP aqueous solution, 100 wt % fructose aqueous solution, 100 wt % glucose aqueous solution, 100 wt % trehalose aqueous solution, 100 wt % sucrose aqueous solution, 100 wt % antipyrine aqueous solution, RapiClear 1.52 aqueous solution, or 25 wt % poly A aqueous solution was added, and the resultant was incubated at 37° C. for 30 minutes. Distilled water was added for a control. After the incubation, 0.1% trypsin was directly added, and the resultant was incubated for 5 minutes. Cell dissociation was confirmed, 3 mL of DMEM medium was added, and then the resultant was collected into a 15-mL centrifuge tube, and centrifuged (1000 rpm, 5 minutes, 20° C.). The supernatant was aspirated and 100 μL of DMEM medium was added. 10 μL was separated from the resultant and placed in an Eppendorf tube, and 10 μL of trypan blue solution was added thereto. Then, 10 μL was separated and the number of cells was counted with an automated cell counter.

[2] = Refractive index of aqueous solutions; assay type: physicochemical
[3] = tested on: three-dimensional tissue model (human skin fibroblasts, human umbilical vein endothelial cells); experiment: Transparentization test (1) on fixed three-dimensional tissue model; assay type: cell-based; conditions: 100 wt % AMP, 37° C., 30 minutes; paraformaldehyde-fixed tissue
Experimental: (1) A solution containing fibrinogen at a concentration of 2 mg/100 μL, CMF at a concentration of 6 mg/100 μL, and thrombin at a concentration of 1 unit/100 μL using DMEM was prepared.
(2) 1.0×10^5 of human skin fibroblasts, 5.0×10^4 of human umbilical vein endothelial cells, 18 μL of a mixed medium of DMEM and EGM-2, and 2 μL of a thrombin solution were placed in an Eppendorf tube to prepare a cell suspension.
(3) The fibrinogen solution prepared in (1) was combined with a CMF solution, and 40 μL from 200 μL in total of the resulting solution was taken out and added to the cell suspension prepared in (2).
(4) The cell suspension prepared in (3) was placed in a glass bottom dish to prepare a 30-μL drop.
(5) After the drop was incubated for 2 hours, 2 mL of a mixed medium of DMEM and EGM-2 was added.
(6) The drop was cultured at 37° C. for 1 week, washed with PBS, and then fixed with paraformaldehyde for 15 minutes.
(7) The fixed tissue was subjected to CD31 immunostaining and DAPI staining.
(8) A transparentization treatment was performed with 100 wt % AMP at 37° C. for 30 minutes.

[4] = tested on: living three-dimensional tissue model; experiment: Transparentization test (2) on living three-dimensional tissue model, confocal observation; assay type: cell-based, human; conditions: 60 wt % AMP, 30 minutes
Experimental: (§1) A transparentization was performed on a living three-dimensional tissue model. 60 wt % AMP was used as a transparentizing agent, and RapiClear 1.52 and 61 wt % fructose were used for comparison. The experimental procedure was the same as that of Example 4, except that the paraformaldehyde fixation described in step (6) was not performed.
The upper part of FIG. 5 is images immediately before the treatment (0 minutes), in which the left panel is an image observed in a direction perpendicular to the dish, and the right panel is an image observed in a direction horizontal to the dish. The lower part of FIG. 5 is images immediately after the treatment (30 minutes), in which the left panel is an image observed in a direction perpendicular to the dish, and the right panel is an image observed in a direction horizontal to the dish. By the transparentization treatment with AMP, the central portion of the tissue was seen so that the deep part up to 200 μm could be observed.

[5] = tested on: living three-dimensional tissue model; experiment: Cell survival rate in living three-dimensional tissue model (trypan blue); assay type: cell-based, human
Experimental: as §1
Further after 30, 60, and 90 minutes of the transparentization treatment in the same experimental system as described above, the tissue was disintegrated with proteinase K and collagenase (1:1) and subjected to trypan blue staining to count the number of viable cells. […] The transparentization treatment with AMP had no significant effect on the cell survival rate (a cell survival rate of 92%). […] The cell survival rate was as high as 92% and 90% after the 30-minute and 60-minute transparentization treatments, respectively. It was confirmed that a significant number of cells survived even after the 90-minute transparentization treatment (a cell survival rate of 45%).

[6] = 600 nm, 100 wt % aqueous solution added to sCMF solution
[7] = human skin fibroblasts, 100 wt % aqueous solutions (RapiClear 1.52 aqueous solution), 37° C., 30 minutes, n = 3

Nc1ncnc2c1ncn2[C@@H]1O[C@H](COP(=O)(O)O)[C@@H](O)[C@H]1O [AMP, adenosine monophosphate]
effect of AMP concentration on transmittance ([1]; 10-100 wt % AMP, 0.1-5 wt % sCMF, 600 nm, 2 hours room temperature): as the AMP concentration was higher, the transmittance was higher
transmittance [1, 6]: 75.6%
transparentizing ability [1]: high transparentizing ability
Survival rate (%) (human skin fibroblasts; human, 30 min, 100 wt %): 92* %
refractive index ([2]; 10 wt % aqueous solution): 1.35
refractive index ([2]; 25 wt % aqueous solution): 1.38
refractive index ([2]; 50 wt % aqueous solution): 1.39
refractive index ([2]; 100 wt % aqueous solution): 1.43
transparentization of tissue (naked eye) [3]: completely transparentized
observable depth of tissue [4]: up to 200 μm
cell survival rate ([5]; human, 30 min): 92%
cell survival rate ([5]; human, 60 min, 60 wt %): 90%
cell survival rate ([5]; human, 90 min, 60 wt %): 45%

Nc1ncnc2c1ncn2[C@@H]1O[C@H](COP(=O)(O)OP(=O)(O)O)[C@@H](O)[C@H]1O [ADP, adenosine diphosphate]
transparentizing ability [1]: high transparentizing ability
Survival rate (%) (human skin fibroblasts; human, 30 min, 100 wt %): 87* %

Nc1ncnc2c1ncn2[C@@H]1O[C@H](COP(=O)(O)OP(=O)(O)OP(=O)(O)O)[C@@H](O)[C@H]1O [ATP, adenosine triphosphate]
transparentizing ability [1]: high transparentizing ability
cell survival rate (in words) (human skin fibroblasts; ATP transparentization treatment): low
Survival rate (%) (human skin fibroblasts; [7]): 26%

O=C(CO)[C@@H](O)[C@H](O)[C@H](O)CO [Fructose, fructose, reference compound]
Survival rate (%) (human skin fibroblasts; [7]): 6%
cell survival rate ([5]; 30 minutes of treatment, 60 wt % AMP, RapiClear 1.52, 61 wt % fructose): 22%

OC[C@H]1O[C@@](CO)(O[C@H]2O[C@H](CO)[C@@H](O)[C@H](O)[C@H]2O)[C@@H](O)[C@@H]1O [Sucrose, sucrose, reference compound]
Survival rate (%) (human skin fibroblasts; human, 30 min, 100 wt %): 14%

poly A
transmittance ([1]; 600 nm, 25 wt % aqueous solution added to sCMF solution): 69.0%
transparentizing ability [1]: high transparentizing ability
effect on the survival rate (in words) (human skin fibroblasts): little effect on the survival rate
refractive index ([2]; 25 wt % aqueous solution): 1.37

Cc1cc(=O)n(-c2ccccc2)n1C [Antipyrine, antipyrine, reference compound]
Survival rate (%) (human skin fibroblasts; [7]): 33%

OC[C@H]1O[C@H](O[C@H]2O[C@H](CO)[C@@H](O)[C@H](O)[C@H]2O)[C@H](O)[C@@H](O)[C@@H]1O [Trehalose, trehalose, reference compound]
Survival rate (%) (human skin fibroblasts; human, 30 min, 100 wt %): 25%

Cc1cn([C@@H]2O[C@H](COP(=O)(O)O)[C@@H](O)[C@H]2O)c(=O)[nH]c1=O [TMP, 5-methyluridine monophosphate]
transmittance [1, 6]: 31.6%
transparentizing ability [1]: high transparentizing ability
Survival rate (%) (human skin fibroblasts; human, 30 min, 100 wt %): 42%
refractive index ([2]; 100 wt % aqueous solution): 1.41

Nc1ccn([C@@H]2O[C@H](COP(=O)(O)O)[C@@H](O)[C@H]2O)c(=O)n1 [CMP, cytidine monophosphate]
transmittance [1, 6]: 45.2%
transparentizing ability [1]: high transparentizing ability
Survival rate (%) (human skin fibroblasts; human, 30 min, 100 wt %): 53%
refractive index ([2]; 100 wt % aqueous solution): 1.42
